The target in assay [1] is farnesyl protein transferase (H-ras) (Homo sapiens, UniProt P49354+P49356). The assay is described as follows: FPT IC50 (H-ras), inhibition of farnesyl protein transferase, in vitro enzyme assay. The class given is biochemical. As to the method:
(§1) FPT IC50 (inhibition of farnesyl protein transferase, in vitro enzyme assay) and COS Cell IC50 (Cell-Based Assay) were determined following the assay procedures described in WO 95/10516, published Apr. 20, 1995. GGPT IC50 (inhibition of geranylgeranyl protein transferase, in vitro enzyme assay), Cell Mat Assay, and anti-tumor activity (in vivo anti-tumor studies) could be determined by the assay procedures described in WO 95/10516. The disclosure of WO 95/10516 is incorporated herein by reference thereto.

Another assay relates to COS Cell. The assay is described as follows: COS Cell IC50 (Cell-Based Assay). The settings on record: COS cells. As to the method: as §1
The target in assay [2] is farnesyl protein transferase (K-ras) (Homo sapiens, UniProt P49354+P49356). The assay is described as follows: FPT IC50 (K-ras), inhibition of farnesyl protein transferase, in vitro enzyme assay. In kind it is biochemical. As to the method:
as §1

The test system of a further assay is Human tumor cells. The assay is described as follows: Soft Agar Assay (anchorage-independent growth). The settings on record: incubated 10-16 days at 37° C. under 5% CO2, MTT stain. The class given is cell-based. As for the experimental part: Anchorage-independent growth is a characteristic of tumorigenic cell lines. Human tumor cells are suspended in growth medium containing 0.3% agarose and an indicated concentration of a farnesyl transferase inhibitor. The solution is overlayed onto growth medium solidified with 0.6% agarose containing the same concentration of farnesyl transferase inhibitor as the top layer. After the top layer is solidified, plates are incubated for 10-16 days at 37° C. under 5% CO2 to allow colony outgrowth. After incubation, the colonies are stained by overlaying the agar with a solution of MTT (3-[4,5-dimethyl-thiazol-2-yl]-2,5-diphenyltetrazolium bromide, Thiazolyl blue) (1 mg/mL in PBS). Colonies can be counted and the IC50 's can be determined.

IC50 data for six molecules are collected here from patent US5985879A, “Compounds useful for inhibition of farnesyl protein transferase” (Schering Corporation, priority 1997, dated 1999).

Usually IC50 stands for the midpoint of a concentration-inhibition curve. `O=C(CC1CCN(c2nnnn2-c2ccccc2)CC1)N1CCC([C@H]2c3ncc(Br)cc3CCc3cc(Cl)cc(Br)c32)CC1` [Formula 2.0] came in with an IC50 in assay [1] of 31 nM.

`O=C(CC1CCN(c2nccs2)CC1)N1CCC([C@H]2c3ncc(Br)cc3CCc3cc(Cl)cc(Br)c32)CC1` [Formula 3.0] gave a 50% inhibitory concentration (IC50) in assay [1] of 140 nM.

On to `O=C(CC1CCN(c2nc3ccccc3o2)CC1)N1CCC([C@H]2c3ncc(Br)cc3CCc3cc(Cl)cc(Br)c32)CC1` [Formula 4.0], for which the IC50 in assay [1] was found to be 16 nM; in the assay with COS Cell it was 120 nM; in assay [2], 91 nM.

Consider `O=C(CC1CCN(c2ccccn2)CC1)N1CCC([C@H]2c3ncc(Br)cc3CCc3cc(Cl)cc(Br)c32)CC1` [Formula 5.0], for which the IC50 was 10.6 nM in assay [1], more than 500 nM in the assay on Human tumor cells, 39 nM with COS Cell and 29 nM in assay [2].

In the case of `O=C(CC1CCN(c2ncccn2)CC1)N1CCC([C@H]2c3ncc(Br)cc3CCc3cc(Cl)cc(Br)c32)CC1` [Formula 6.0], the half-maximal inhibitory concentration (IC50) was 20 nM in assay [1] and 68 nM in the assay on COS Cell.

Turning to `CC(=O)OC[C@H]1O[C@@H](N2CCC(CC(=O)N3CCC([C@H]4c5ncc(Br)cc5CCc5cc(Cl)cc(Br)c54)CC3)CC2)[C@H](OC(C)=O)[C@@H](OC(C)=O)[C@@H]1OC(C)=O` [Formula 9.3], the concentration for half-maximal inhibition (IC50) in assay [1] was found to be 4.6 nM; with Human tumor cells, 80 nM; in the assay on COS Cell, 35 nM; in assay [2] it was 40.9 nM.
